The values below come from PubChem BioAssay AID624057 (Broad Institute, 2012).

The target in assay [1] is Glycogen synthase kinase-3 beta (Homo sapiens) (UniProt P49841). The experiment in a line: reduction of cellular Tau Ser199 phosphorylation, dose response, cell-based, SH-SY5Y, ELISA, pTau Ser199, powder samples (AID 624057). The settings on record: SH-SY5Y pTau(Ser199)/total Tau ELISA. In general terms: An ELISA detects its analyte on a solid surface through an enzyme-linked reagent.

Experiment in assay [2]: as above
The settings on record: SH-SY5Y pTau(Ser199)/total Tau ELISA; measured here: cell survival (total Tau) top dose; at 35 µM; stronger effect = lower value.

A word on the IC50: it is the midpoint of a concentration-inhibition curve. A word on the viability: it is a read-out of living cells in per cent, often relative to untreated cells.

Where “and” joins values, the source holds several entries; their conditions need not be identical. Equal values may be shown once. Calls of active or inactive are those of the source. No rule for the calls is given here.

Glycogen synthase kinase-3 beta (Homo sapiens), sequence (P49841 whole entry, looked up): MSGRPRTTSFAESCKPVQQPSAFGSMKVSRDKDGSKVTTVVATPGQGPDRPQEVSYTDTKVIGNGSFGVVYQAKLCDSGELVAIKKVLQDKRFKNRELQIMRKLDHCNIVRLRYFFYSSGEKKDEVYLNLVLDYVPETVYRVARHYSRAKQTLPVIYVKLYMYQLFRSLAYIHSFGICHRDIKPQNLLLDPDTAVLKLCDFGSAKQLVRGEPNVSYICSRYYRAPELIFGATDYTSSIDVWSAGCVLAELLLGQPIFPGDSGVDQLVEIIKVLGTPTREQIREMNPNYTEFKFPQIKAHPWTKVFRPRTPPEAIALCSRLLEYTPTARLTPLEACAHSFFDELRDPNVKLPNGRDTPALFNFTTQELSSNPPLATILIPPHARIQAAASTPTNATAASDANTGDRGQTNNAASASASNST

For `Cc1[nH]nc2c1C(c1ccccc1C(F)(F)F)C1=C(CC(C)(C)CC1=O)N2` (stereo not drawn), the IC50 in assay [1] is 4240 nM. Still for that read-out and setting: the result for `CC1(C)CC(=O)C2=C(C1)Nc1n[nH]c(C(F)(F)F)c1C2c1ccccc1` (stereo not drawn) reads 510 nM. Take `Cc1[nH]nc2c1C(c1cccc(C#N)c1)C1=C(CC(C)(C)CC1=O)N2` (stereo not drawn): in assay [2], the viability was determined as 119%. For the same compound, the IC50 in assay [1] is 2500 nM. In the case of `COc1ccccc1[C@@H]1C2=C(CC(C)(C)CC2=O)Nc2n[nH]c(C)c21`, the IC50 in assay [1] is 6570 nM and > 35000 nM (inactive).

For the compound `Cc1[nH]nc2c1C(c1ccccc1F)C1=C(CC(C)(C)CC1=O)N2` (stereo not drawn), the viability in assay [2] was 113%. With `Cc1[nH]nc2c1[C@@H](c1ccccc1C(F)(F)F)C1=C(CC(C)(C)CC1=O)N2`, in assay [2], the viability worked out at 110%. For the same compound, in assay [1], the IC50 is 2270 nM. Consider `Cc1[nH]nc2c1[C@H](c1ccccc1C(F)(F)F)C1=C(CC(C)(C)CC1=O)N2`, for which, in assay [1], the IC50 is > 35000 nM (inactive).

With `COc1ccccc1C1C2=C(CC(C)(C)CC2=O)Nc2n[nH]c(C(F)(F)F)c21` (stereo not drawn), in assay [1], the IC50 was 2750 nM and 760 nM. Turning to `COc1ccccc1[C@H]1C2=C(CC(C)(C)CC2=O)Nc2n[nH]c(C(F)(F)F)c21`, the IC50 in assay [1] was > 35000 nM (inactive). In the case of `Cc1[nH]nc2c1C(c1cccc3nonc13)C1=C(CC(C)(C)CC1=O)N2` (stereo not drawn), in assay [2], the viability is 112%. Moreover, in assay [1], the IC50 is 2270 nM.

As to `COc1ccccc1[C@@H]1C2=C(CC(C)(C)CC2=O)Nc2n[nH]c(C(F)(F)F)c21`, in assay [1], the IC50 is 560 nM.

Turning to `CC1(C)CC(=O)C2=C(C1)Nc1n[nH]c(C(F)(F)F)c1C2(C)c1ccccc1` (stereo not drawn), the IC50 in assay [1] is 1870 nM. Consider `CSc1ccccc1C1C2=C(CC(C)(C)CC2=O)Nc2n[nH]c(C)c21` (stereo not drawn), for which the viability in assay [2] was 106%. For the same compound, in assay [1], the IC50 is 2850 nM.

With `CC1(C)CC(=O)C2=C(C1)Nc1n[nH]c(C(F)(F)F)c1C2c1cccc(F)c1C(F)(F)F` (stereo not drawn), the viability in assay [2] was found to be 57.1%. The 50% inhibitory concentration (IC50) in assay [1] is 1380 nM. On to `CC1(C)CC(=O)C2=C(C1)Nc1n[nH]c(C(F)(F)F)c1C2c1ccccc1C(F)(F)F` (stereo not drawn), for which the IC50 in assay [1] was 410 nM. Same read-out and setting: the result for `Cc1[nH]nc2c1C(c1ccccc1Cl)C1=C(CC(C)(C)CC1=O)N2` (stereo not drawn) reads 2490 nM; that for `COc1ccccc1C1C2=C(CC(C)(C)CC2=O)Nc2n[nH]c(C)c21` (stereo not drawn), 7100 nM; that for `Cc1[nH]nc2c1C(c1cccc(C(F)(F)F)c1)C1=C(CC(C)(C)CC1=O)N2` (stereo not drawn), 4680 nM.
